# Patent US10398751B2, “Pharmaceutical compositions of water soluble peptides with poor solubility in isotonic conditions and methods for their use” (STRONGBRIDGE IRELAND LIMITED, priority 2016, dated 2019)
# Like-named read-outs stand apart in the source and are kept apart here.
# Key:
# [1] = Comparative surface tension of peptides in water for injection; assay type: physicochemical; settings: 10 mg/ml in WFI
# [2] = Solubility of COR005 acetate in aqueous media with additives at 25° C.; assay type: physicochemical; settings: isotonic 5% dextrose in water, 5% Dextrose Isotonic; additives none; read-out: Solubility of COR005 Acetate (mg/ml) at 25° C.
# Text: Table 3 summarizes the solubility values of COR005 acetate in various aqueous media, the effects of additives such as DEX and HPB on the peptide solubility in saline and physiological conditions, as well as the PK profile of IR and MS formulations prepared with these additives in comparison to COR005 without additives as control.
# Note that both media (PBS or Saline) contained physiological concentrations of chloride which indicates the incompatibility and salting out of the peptide in the presence of the chloride ion.
# The relatively high solubility of COR005 acetate in 5% dextrose (in water) of greater than 500 mg/ml indicates the improved solubility of the peptide in water with dextrose. […] Note that this 1:1 diluted dextrose in saline was used as a vehicle in the IR study of COR005 acetate in rats and minipigs (the DEX:PEP ratio was 5:1).
# [3] = Solubility and surface activity in PBS under physiological conditions (37° C.); assay type: physicochemical; settings: COR005 10 mg/ml; for Surface tension (dyne/cm) / Effect of surface tension (% of baseline): PBS pH 7.4, 37° C.; for solubility: PBS, pH 7.4, PBS pH 7.4, 37° C.
# Description: Table 6 summarizes the effects of additives on the surface activity profile of COR005 acetate under physiological conditions (37° C.) that emulate the release of COR005 at the injection site.
# [4] = Pharmacokinetics of IR formulations in minipigs; assay type: in vivo; settings: minipig, plasma, sc; for bioavailability: read-out: Minipigs absolute BA (F %)
# [5] = 0.4 mg/kg, IR, SC, 0.4 mg/Kg, DEX:PEP 5:1 saline
# [6] = 0.4 mg/kg, IR, SC, 0.4 mg/Kg, HPB:PEP 15:1 saline
structure (smiles),measurement,setting,value
"C[C@@H](O)[C@@H]1NC(=O)[C@H](CCCCN)NC(=O)[C@@H](Cc2c[nH]c3ccccc23)NC(=O)[C@H](Cc2c[nH]c3ccccc23)NC(=O)[C@H](Cc2ccccc2)NC(=O)CCCNC(=O)CCCN(CC(N)=O)C(=O)[C@H](Cc2ccccc2)NC1=O [Veldoreotide, cyclo(-γ-aminobutyryl-L-phenylalanyl-L-tryptophanyl-D-tryptophanyl-L-lysyl-L-threonyl-L-phenylalanyl-N-carbamoylmethyl-γ-aminobutyryl)]",Effect of reduced surface tension (%),[1]; baseline WFI,−37%
same,Water surface tension (dyne/cm),[1]; baseline WFI 52,33 dyne/cm
same,solubility,[2],> 500 mg/mL
same,Surface tension (dyne/cm),[3]; Dextrose 5 wt %,49 dyne/cm
same,Effect of surface tension (% of baseline),"[3]; Dextrose 5 wt %, at 48 h",(−18% at 48 h)
same,Effect of surface tension (% of baseline),"[3]; Dextrose 5 wt %, baseline PBS/5% DEX",−14%
same,Surface tension (dyne/cm),[3]; HPB:PEP 1:2,45 dyne/cm
same,Effect of surface tension (% of baseline),"[3]; HPB:PEP 1:2, baseline PBS",−6%
same,Effect of surface tension (% of baseline),"[3]; HPB:PEP 1:4, baseline PBS",−19%
same,Surface tension (dyne/cm),[3]; HPB:PEP 10:1,50 dyne/cm
same,Effect of surface tension (% of baseline),"[3]; HPB:PEP 10:1, baseline PBS",+4%
same,Effect of surface tension (% of baseline),"[3]; no additive, baseline PBS",−29%
same,solubility,[3]; Dextrose 5 wt %,3300 µg/mL
same,solubility,[3]; HPB:PEP 1:2,5000 µg/mL
same,solubility,[3]; HPB:PEP 1:4,3900 µg/mL
same,solubility,[3]; HPB:PEP 10:1,8900 µg/mL
same,solubility,[3]; no additive,3600 µg/mL
same,bioavailability,"[4]; 0.1 mg/kg, IR, SC, 0.1 mg/Kg, DEX:PEP 5:1 saline",91%
same,bioavailability,"[4]; 0.1 mg/kg, pH 4, IR, SC, 0.1 mg/Kg, Lactic acid buffer pH 4",45%
same,Cmax,[4]; [5],238 ng/mL
same,bioavailability,[4]; [5],88.4%
same,Cmax,[4]; [6],255 ng/mL
same,bioavailability,[4]; [6],85.3%
same,bioavailability,"[4]; 0.4 mg/kg, pH 4, IR, SC, 0.4 mg/Kg, Lactic acid buffer pH 4",69%
same,Cmax,"[4]; 0.4 mg/kg, pH 4, IR, Lactic acid buffer pH 4",108 ng/mL
